Here are results for two molecules from patent publication US20220267341A1, “SOLID FORMS OF TERT-BUTYL (S)-2((2S,3R)-1-AMINO-3-HYDROXY-1-OXOBU TAN-2-YL)-1-OXO-2, 5-DIAZASPIRO [3.4] OCTAN E-5-CARBOXYLATE AND METHODS OF PREPARING THEM” (NAUREX INC., priority 2019, published 2022).

What all share (format): physicochemical
The nature of data set [1]: Competitive slurry in mixtures of water and isopropanol. The following applies: 25° C. Here is the method:
Competitive slurry in mixtures of water and isopropanol indicates the phase boundary between the crystalline Form I and crystalline Form II is between water activity of 0.66-0.78 at 25° C. At water activity above 0.78, crystalline Form II is the stable form, whereas at water activity below 0.66, crystalline Form I is the stable form

The nature of data set [2]: DVS water vapor desorption analysis. The following applies: 25° C. Here is the method:
DVS: The following method was used for the water vapor desorption analysis using a DVS Advantage (Surface Measurement Systems). • Temperature: 25° C. • RH program: 95, 90, 80, 70, 60, 50, 40, 35, 30, 20, 10, 0%. • Dm/dt (%/min.): 0.0005 • Minimum equilibrium time: 120 minutes • Maximum equilibrium time: 2000 minutes
The solid was also subjected to DVS measurement and lost about 11% water at 0% RH.

The nature of data set [3]: Thermogravimetric analysis (TGA). To be noted: heated from room temperature at 10° C./minute; consistent with a dihydrate. Here is the method:
TGA: Approximately 5-10 mg sample was heated from room temperature to 250° C. at 10° C./minute.
(§1) In another experiment, about 2 g of crystalline Form I of Compound A from Example 1 was weighed into a 20 mL scintillation vial and 4 mL of Milli-Q water was added into the vial. The resulting suspension was stirred with a spatula and left at room temperature for one day. The residual was then filtered with vacuum and dried in a vacuum oven at room temperature for about 20 hours. XRPD was taken after drying and Form II was confirmed since it was essentially the same as FIG. 3, top panel. […] The dried sample was then dehydrated in a TGA pan at 80° C. (ramp from room temperature to 80° C. at 10° C./min and then isothermal for 2 min).

Data set [4] in a line: DSC thermogram (dehydration event). The following applies: 20 to 180° C. at 10° C./min, pin-hole lid. Here is the method: DSC: DSC thermograms were obtained using a TA Instruments DSC Q2000. Approximately 1-2 mg of sample was weighed into a Tzero aluminum pan and hermetically sealed with a Tzero hermetic lid. For crystalline Form II samples, the lid was punched with a pin-hole. • DSC: Sample was scanned from 20 to 180° C. at 10° C./min.
as §1

The nature of data set [5]: Dehydration in a TGA pan at 80° C., form checked by XRPD and DSC. To be noted: ramp to 80° C. at 10° C./min then isothermal for 2 min. Here is the method: as §1

For `C[C@@H](O)[C@@H](C(N)=O)N1C[C@@]2(CCCN2C(=O)OC(C)(C)C)C1=O` [crystalline Form I of Compound A, tert-butyl (S)-2-((2S,3R)-1-amino-3-hydroxy-1-oxobutan-2-yl)-1-oxo-2,5-diazaspiro[3.4]octane-5-carboxylate], the “water activity at which the form is the stable form” value in data set [1] is recorded as “below 0.66”.

As to `C[C@@H](O)[C@@H](C(N)=O)N1C[C@@]2(CCCN2C(=O)OC(C)(C)C)C1=O` [crystalline Form II of Compound A, tert-butyl (S)-2-((2S,3R)-1-amino-3-hydroxy-1-oxobutan-2-yl)-1-oxo-2,5-diazaspiro[3.4]octane-5-carboxylate dihydrate], in data set [2] (0% RH), the “water lost in DVS” value was “about 11%”. In data set [2] (at or above 20% RH), the “water loss in DVS at or above 20% RH” value is reported as “did not lose water”. The molecule further had a TGA weight loss in data set [3] of 9.6%. In addition, the “possible dehydration event in DSC” value in data set [4] was “about 82 °C”. Also, the “solid form after dehydration” value in data set [5] is “mostly crystalline Form I with residual amorphous content and very small amount of crystalline Form II”. Also, the “water activity at which the form is the stable form” value in data set [1] (dihydrate) was “above 0.78”.
